Tests used:
[1] = system: patients with stage IV or recurrent NSCLC; conditions: in vivo
Text: Overall response rates (ORR), duration of response, and safety were exploratory endpoints. Adverse events were graded according to the National Cancer Institute Common Terminology Criteria for Adverse Events, version 4.0.

[2] = monotherapy, every two weeks; MTD not reached; cited from earlier work
[3] = system: stage IV or recurrent NSCLC; assay: Phase 3 trial, part 1: first-line nivolumab-based regimens vs chemotherapy; efficacy (PFS, ORR, duration of response); type: in vivo, human
Text: This trial is an open-label, multi-part phase 3 study of first-line nivolumab and nivolumab-based combinations in biomarker-selected NSCLC populations. […] The study continues for the co-primary endpoint of overall survival in PD-L1-selected patients.
Patients had chemotherapy-naive, stage IV or recurrent NSCLC.
Adult patients with PD-L1-histologically confirmed squamous or nonsquamous stage IV/recurrent NSCLC and Eastern Cooperative Oncology Group (ECOG) performance status (Oken M. M., et al. Am J Clin Oncol 5:649-55 (1982)) of 0 or 1 who had received no prior systemic anticancer therapy as primary therapy for advanced or metastatic disease were eligible for the study. All patients underwent imaging to screen for brain metastases. Patients with known EGFR mutations or ALK translocations sensitive to targeted therapy, an autoimmune disease, or untreated central nervous system metastases were excluded.
All treatments continued until disease progression, unacceptable toxicity, or completion per protocol (up to 2 years for immunotherapy). Crossover between treatment arms within the study was not permitted.
Part 1 of this study had two co-primary endpoints.

nivolumab
safety / tolerability (in words) [1]: well tolerated
maximum tolerated dose (MTD) [2]: > 10 mg/kg
median PFS ([3]; TMB ≥10 mutations/Mb and ≥1% PD-L1 expression): 4.2 months
median PFS ([3]; TMB ≥13 mutations/Mb and ≥1% PD-L1 expression): 4.2 months
PFS hazard ratio (HR), nivolumab vs. chemotherapy ([3]; in vivo): 0.95
